In paper PMC5814754, “Quantitative, Wide-Spectrum Kinase Profiling in Live Cells for Assessing the Effect of Cellular ATP on Target Engagement” (Cell Chemical Biology, 2018) one finds EC50 data, which are given here for two compounds.

Assay in all cases: Apparent affinity (EC50) of energy transfer probes by titration onto live HEK293 cells expressing kinase/Nluc fusions (Table S1)
Common to all, as to type: binding

For assay [1], the target named is full-length kinase/Nluc fusion proteins (Homo sapiens, UniProt Q12866). As to conditions: MERTK, Nluc C; read-out: Probe EC50.
Assay [2] has as its target full-length kinase/Nluc fusion proteins (Homo sapiens, UniProt P54646). Conditions: PRKAA2, Nluc N; read-out: Probe EC50.
The target in assay [3] is full-length kinase/Nluc fusion proteins (Homo sapiens, UniProt P36896). As to conditions: ACVR1B, Nluc C; read-out: Probe EC50.
Assay [4] concerns the target full-length kinase/Nluc fusion proteins (Homo sapiens, UniProt O43283). Conditions: MAP3K13, Nluc N; read-out: Probe EC50.
Assay [5] addresses full-length kinase/Nluc fusion proteins (Homo sapiens, UniProt P31751). As to conditions: AKT2, Nluc C; read-out: Probe EC50.
Assay [6] addresses full-length kinase/Nluc fusion proteins (Homo sapiens, UniProt Q9UM73). As to conditions: ALK, Nluc C; read-out: Probe EC50.
The target of assay [7] is full-length kinase/Nluc fusion proteins (Homo sapiens, UniProt Q12851). Conditions: MAP4K2, Nluc N; read-out: Probe EC50.
Assay [8] addresses full-length kinase/Nluc fusion proteins (Homo sapiens, UniProt P28482). As to conditions: MAPK1, Nluc N; read-out: Probe EC50.
The target in assay [9] is full-length kinase/Nluc fusion proteins (Homo sapiens, UniProt Q9BVS4). Conditions: RIOK2, Nluc N; read-out: Probe EC50.
The target of assay [10] is full-length kinase/Nluc fusion proteins (Homo sapiens, UniProt P78368). Conditions: CSNK1G2, Nluc N; read-out: Probe EC50.
In assay [11] the target is full-length kinase/Nluc fusion proteins (Homo sapiens, UniProt Q14164). As to conditions: IKBKE, Nluc N; read-out: Probe EC50.
For assay [12], the target named is full-length kinase/Nluc fusion proteins (Homo sapiens, UniProt P11362). As to conditions: FGFR1, Nluc C; read-out: Probe EC50.
Assay [13] deals with full-length kinase/Nluc fusion proteins (Homo sapiens, UniProt Q13627). As to conditions: DYRK1A, Nluc N; read-out: Probe EC50.
Assay [14] has as its target full-length kinase/Nluc fusion proteins (Homo sapiens, UniProt P22455). As to conditions: FGFR4, Nluc C; read-out: Probe EC50.
The target of assay [15] is full-length kinase/Nluc fusion proteins (Homo sapiens, UniProt P22607). As to conditions: FGFR3, Nluc C; read-out: Probe EC50.
Assay [16] has as its target full-length kinase/Nluc fusion proteins (Homo sapiens, UniProt Q92630). As to conditions: DYRK2, Nluc C; read-out: Probe EC50.
The target in assay [17] is full-length kinase/Nluc fusion proteins (Homo sapiens, UniProt O14965). Conditions: AURKA, Nluc C; read-out: Probe EC50.
The target in assay [18] is full-length kinase/Nluc fusion proteins (Homo sapiens, UniProt Q06418). Conditions: TYRO3 (NP_006284), Nluc orientation C; read-out: Probe EC50.
Assay [19] has as its target full-length kinase/Nluc fusion proteins (Homo sapiens, UniProt Q9UQB9). Conditions: AURKC, Nluc C; read-out: Probe EC50.
Assay [20] deals with full-length kinase/Nluc fusion proteins (Homo sapiens, UniProt P52333). Conditions: JAK3, Nluc C; read-out: Probe EC50.
In assay [21] the target is full-length kinase/Nluc fusion proteins (Homo sapiens, UniProt O75385). As to conditions: ULK1 (NP_003556), Nluc orientation N; read-out: Probe EC50.
Assay [22] deals with full-length kinase/Nluc fusion proteins (Homo sapiens, UniProt O15146). As to conditions: MUSK, Nluc C; read-out: Probe EC50.
The target of assay [23] is full-length kinase/Nluc fusion proteins (Homo sapiens, UniProt P42685). Conditions: FRK, Nluc C; read-out: Probe EC50.
Assay [24] deals with full-length kinase/Nluc fusion proteins (Homo sapiens, UniProt Q16832). As to conditions: DDR2, Nluc C; read-out: Probe EC50.
For assay [25], the target named is full-length kinase/Nluc fusion proteins (Homo sapiens, UniProt P09769). As to conditions: FGR, Nluc N; read-out: Probe EC50.
The target of assay [26] is full-length kinase/Nluc fusion proteins (Homo sapiens, UniProt P07333). As to conditions: CSF1R, Nluc C; read-out: Probe EC50.
In assay [27] the target is full-length kinase/Nluc fusion proteins (Homo sapiens, UniProt P41240). As to conditions: CSK, Nluc C; read-out: Probe EC50.
For assay [28], the target named is full-length kinase/Nluc fusion proteins (Homo sapiens, UniProt P54756). Conditions: EPHA5, Nluc C; read-out: Probe EC50.
In assay [29] the target is full-length kinase/Nluc fusion proteins (Homo sapiens, UniProt P10721). Conditions: KIT, Nluc C; read-out: Probe EC50.
The target of assay [30] is full-length kinase/Nluc fusion proteins (Homo sapiens, UniProt P42681). As to conditions: TXK (NP_003319), Nluc orientation C; read-out: Probe EC50.
Assay [31] deals with full-length kinase/Nluc fusion proteins (Homo sapiens, UniProt P06241). As to conditions: FYN, Nluc C; read-out: Probe EC50.
For assay [32], the target named is full-length kinase/Nluc fusion proteins (Homo sapiens, UniProt P29323). Conditions: EPHB2, Nluc C; read-out: Probe EC50.
The target in assay [33] is full-length kinase/Nluc fusion proteins (Homo sapiens, UniProt P54764). Conditions: EPHA4, Nluc C; read-out: Probe EC50.

full-length kinase/Nluc fusion proteins (Homo sapiens, UniProt P07333), sequence (P07333 20-972): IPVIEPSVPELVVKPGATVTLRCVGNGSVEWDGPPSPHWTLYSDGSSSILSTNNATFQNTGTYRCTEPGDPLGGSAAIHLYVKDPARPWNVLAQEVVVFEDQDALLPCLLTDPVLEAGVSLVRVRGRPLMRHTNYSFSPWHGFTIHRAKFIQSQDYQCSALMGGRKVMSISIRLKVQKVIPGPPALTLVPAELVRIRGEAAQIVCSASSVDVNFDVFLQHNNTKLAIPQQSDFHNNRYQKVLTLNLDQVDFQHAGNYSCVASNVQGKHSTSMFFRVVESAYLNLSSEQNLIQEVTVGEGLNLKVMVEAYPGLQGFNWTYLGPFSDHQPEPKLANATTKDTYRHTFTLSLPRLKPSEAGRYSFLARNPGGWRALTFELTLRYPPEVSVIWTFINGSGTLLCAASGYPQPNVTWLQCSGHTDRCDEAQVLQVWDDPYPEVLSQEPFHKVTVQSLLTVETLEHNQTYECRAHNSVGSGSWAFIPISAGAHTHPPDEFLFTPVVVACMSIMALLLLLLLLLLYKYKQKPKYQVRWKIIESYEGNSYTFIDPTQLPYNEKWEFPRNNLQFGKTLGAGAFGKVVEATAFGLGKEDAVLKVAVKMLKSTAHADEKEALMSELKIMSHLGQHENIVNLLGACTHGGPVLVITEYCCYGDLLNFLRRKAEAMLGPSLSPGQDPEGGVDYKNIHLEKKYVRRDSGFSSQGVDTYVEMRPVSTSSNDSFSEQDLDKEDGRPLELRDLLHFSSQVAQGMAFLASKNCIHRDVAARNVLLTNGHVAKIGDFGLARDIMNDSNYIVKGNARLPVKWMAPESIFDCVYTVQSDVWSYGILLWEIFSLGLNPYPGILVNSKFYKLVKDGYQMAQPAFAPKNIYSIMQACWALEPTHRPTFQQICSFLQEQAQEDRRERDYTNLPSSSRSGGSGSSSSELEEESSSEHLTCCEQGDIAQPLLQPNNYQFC
full-length kinase/Nluc fusion proteins (Homo sapiens, UniProt P78368), sequence (P78368 whole entry, the tested form may be a part): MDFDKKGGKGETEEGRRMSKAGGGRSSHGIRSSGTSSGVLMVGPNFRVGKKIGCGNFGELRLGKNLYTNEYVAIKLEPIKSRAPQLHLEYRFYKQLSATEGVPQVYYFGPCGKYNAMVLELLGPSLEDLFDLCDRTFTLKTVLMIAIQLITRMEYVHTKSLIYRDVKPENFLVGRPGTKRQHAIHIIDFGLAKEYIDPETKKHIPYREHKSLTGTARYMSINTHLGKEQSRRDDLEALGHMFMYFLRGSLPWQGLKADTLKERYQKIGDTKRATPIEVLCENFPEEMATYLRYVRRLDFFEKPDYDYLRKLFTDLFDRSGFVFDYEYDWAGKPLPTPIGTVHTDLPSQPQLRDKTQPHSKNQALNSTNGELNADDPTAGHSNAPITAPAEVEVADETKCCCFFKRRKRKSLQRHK
full-length kinase/Nluc fusion proteins (Homo sapiens, UniProt Q92630), sequence (Q92630 whole entry, the tested form may be a part): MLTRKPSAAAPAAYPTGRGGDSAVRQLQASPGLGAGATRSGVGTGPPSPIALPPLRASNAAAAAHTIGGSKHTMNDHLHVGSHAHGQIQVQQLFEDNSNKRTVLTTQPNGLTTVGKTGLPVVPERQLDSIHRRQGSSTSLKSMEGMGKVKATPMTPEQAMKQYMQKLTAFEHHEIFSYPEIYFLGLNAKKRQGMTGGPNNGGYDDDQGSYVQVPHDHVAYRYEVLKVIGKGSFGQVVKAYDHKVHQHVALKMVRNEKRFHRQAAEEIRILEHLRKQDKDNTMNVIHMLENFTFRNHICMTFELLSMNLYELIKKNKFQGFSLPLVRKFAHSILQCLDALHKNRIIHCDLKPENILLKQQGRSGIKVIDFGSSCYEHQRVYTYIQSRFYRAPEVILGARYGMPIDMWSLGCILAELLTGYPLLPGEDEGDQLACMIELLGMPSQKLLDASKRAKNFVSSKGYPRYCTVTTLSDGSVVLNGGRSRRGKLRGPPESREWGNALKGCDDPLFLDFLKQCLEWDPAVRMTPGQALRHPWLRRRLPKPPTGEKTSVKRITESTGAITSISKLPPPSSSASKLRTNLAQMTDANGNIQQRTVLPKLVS
full-length kinase/Nluc fusion proteins (Homo sapiens, UniProt P41240), sequence (P41240 whole entry, the tested form may be a part): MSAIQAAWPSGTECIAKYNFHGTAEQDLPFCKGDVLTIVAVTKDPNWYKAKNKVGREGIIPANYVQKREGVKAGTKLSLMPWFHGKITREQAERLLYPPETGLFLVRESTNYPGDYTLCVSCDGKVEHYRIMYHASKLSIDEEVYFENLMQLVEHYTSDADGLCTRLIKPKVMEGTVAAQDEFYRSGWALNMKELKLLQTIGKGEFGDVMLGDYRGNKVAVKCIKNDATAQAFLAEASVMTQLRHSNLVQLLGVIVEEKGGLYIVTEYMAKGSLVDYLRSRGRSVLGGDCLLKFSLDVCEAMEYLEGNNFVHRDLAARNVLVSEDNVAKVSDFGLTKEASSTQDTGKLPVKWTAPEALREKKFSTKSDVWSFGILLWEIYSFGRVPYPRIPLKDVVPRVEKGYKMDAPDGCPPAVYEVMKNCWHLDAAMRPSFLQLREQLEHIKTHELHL
full-length kinase/Nluc fusion proteins (Homo sapiens, UniProt P28482), sequence (P28482 whole entry, the tested form may be a part): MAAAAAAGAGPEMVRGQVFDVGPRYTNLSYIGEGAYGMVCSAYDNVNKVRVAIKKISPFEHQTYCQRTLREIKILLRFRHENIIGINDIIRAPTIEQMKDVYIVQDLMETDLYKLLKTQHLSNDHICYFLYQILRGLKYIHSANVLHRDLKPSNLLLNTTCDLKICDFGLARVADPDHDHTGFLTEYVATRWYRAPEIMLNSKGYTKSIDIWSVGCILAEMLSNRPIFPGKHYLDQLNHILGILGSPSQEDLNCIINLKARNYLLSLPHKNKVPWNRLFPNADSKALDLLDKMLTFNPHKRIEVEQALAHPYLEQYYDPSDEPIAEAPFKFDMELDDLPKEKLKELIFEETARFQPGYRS
full-length kinase/Nluc fusion proteins (Homo sapiens, UniProt Q9BVS4), sequence (Q9BVS4 whole entry, the tested form may be a part): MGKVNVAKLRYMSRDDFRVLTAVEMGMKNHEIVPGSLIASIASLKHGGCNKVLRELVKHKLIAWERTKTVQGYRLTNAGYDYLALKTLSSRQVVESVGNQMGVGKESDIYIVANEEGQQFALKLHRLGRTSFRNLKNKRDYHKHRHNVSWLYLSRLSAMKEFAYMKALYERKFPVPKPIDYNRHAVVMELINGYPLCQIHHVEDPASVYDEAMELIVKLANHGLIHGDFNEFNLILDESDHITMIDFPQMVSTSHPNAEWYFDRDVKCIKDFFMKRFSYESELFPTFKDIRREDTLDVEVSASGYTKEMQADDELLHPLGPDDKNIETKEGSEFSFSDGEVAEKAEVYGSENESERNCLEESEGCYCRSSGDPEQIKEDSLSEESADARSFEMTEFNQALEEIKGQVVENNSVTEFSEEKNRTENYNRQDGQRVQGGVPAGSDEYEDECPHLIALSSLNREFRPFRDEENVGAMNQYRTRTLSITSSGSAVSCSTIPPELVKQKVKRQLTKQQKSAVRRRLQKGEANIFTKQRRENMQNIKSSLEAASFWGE
full-length kinase/Nluc fusion proteins (Homo sapiens, UniProt O75385), sequence (O75385 whole entry, the tested form may be a part): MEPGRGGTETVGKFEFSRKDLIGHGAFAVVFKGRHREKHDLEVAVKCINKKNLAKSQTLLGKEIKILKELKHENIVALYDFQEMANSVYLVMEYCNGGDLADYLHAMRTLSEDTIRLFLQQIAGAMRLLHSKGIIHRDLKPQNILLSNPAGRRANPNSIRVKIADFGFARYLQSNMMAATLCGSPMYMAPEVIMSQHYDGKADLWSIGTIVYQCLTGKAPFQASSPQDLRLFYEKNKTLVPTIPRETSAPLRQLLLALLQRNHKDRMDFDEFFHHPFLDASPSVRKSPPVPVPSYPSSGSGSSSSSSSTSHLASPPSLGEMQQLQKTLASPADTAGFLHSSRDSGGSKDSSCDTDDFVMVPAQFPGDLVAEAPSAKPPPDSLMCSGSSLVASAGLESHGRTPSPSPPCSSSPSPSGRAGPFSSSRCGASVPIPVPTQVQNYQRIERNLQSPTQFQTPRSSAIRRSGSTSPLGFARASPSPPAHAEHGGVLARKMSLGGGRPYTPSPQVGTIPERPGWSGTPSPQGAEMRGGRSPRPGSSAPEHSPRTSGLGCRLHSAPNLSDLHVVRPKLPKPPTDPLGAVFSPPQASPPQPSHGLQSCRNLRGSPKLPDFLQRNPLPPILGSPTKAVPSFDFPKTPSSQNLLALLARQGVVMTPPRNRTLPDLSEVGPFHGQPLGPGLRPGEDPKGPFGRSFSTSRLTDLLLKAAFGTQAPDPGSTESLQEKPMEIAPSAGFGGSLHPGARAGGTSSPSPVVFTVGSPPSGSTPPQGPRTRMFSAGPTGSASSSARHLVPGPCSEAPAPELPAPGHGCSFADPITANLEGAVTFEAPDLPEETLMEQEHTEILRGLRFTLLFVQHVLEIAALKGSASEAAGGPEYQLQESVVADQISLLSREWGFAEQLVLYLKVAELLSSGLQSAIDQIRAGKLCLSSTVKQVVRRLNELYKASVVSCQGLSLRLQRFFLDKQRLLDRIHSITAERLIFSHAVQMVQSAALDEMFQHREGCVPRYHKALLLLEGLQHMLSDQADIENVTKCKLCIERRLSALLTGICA
full-length kinase/Nluc fusion proteins (Homo sapiens, UniProt Q9UQB9), sequence (Q9UQB9 whole entry, the tested form may be a part): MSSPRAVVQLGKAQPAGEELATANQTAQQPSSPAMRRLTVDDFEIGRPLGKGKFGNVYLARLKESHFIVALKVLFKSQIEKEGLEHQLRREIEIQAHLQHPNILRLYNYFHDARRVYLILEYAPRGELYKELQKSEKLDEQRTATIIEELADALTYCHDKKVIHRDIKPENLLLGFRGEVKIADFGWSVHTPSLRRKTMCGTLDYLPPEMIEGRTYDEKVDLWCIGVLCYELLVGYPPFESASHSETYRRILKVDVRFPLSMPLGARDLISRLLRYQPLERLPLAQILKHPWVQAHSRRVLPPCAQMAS

For orientation: EC50 means the concentration that produces a half-maximal response. As to `CNC(=O)c1ccccc1Nc1nc(Nc2ccc(N3CCN(C(=O)CCOCCOCCOCCOCCNC(=O)CCc4ccc5n4[B-](F)(F)[N+]4=C(c6ccc[nH]6)C=CC4=C5)CC3)cc2)ncc1Cl` [Energy Transfer Probe 5, 2-((2-((4-(4-(1-amino-3,6,9,12-tetraoxapentadecan-15-oyl)piperazin-1-yl)phenyl)amino)-5-chloropyrimidin-4-yl)amino)-N-methylbenzamide-NanoBRET 590], the half-maximal effective concentration (EC50) in assay [1] is 300 nM; in assay [2], over 1000 nM; in assay [3] it was over 1000 nM; in assay [4] it was 200 nM; in assay [5], over 1000 nM; in assay [6] it was over 1000 nM. Moreover, the half-maximal effective concentration (EC50) in assay [7] was over 1000 nM; in assay [8], over 1000 nM; in assay [9], over 1000 nM; in assay [10], over 1000 nM; in assay [11], over 1000 nM; in [12], 600 nM. For the same compound, the concentration giving a half-maximal response (EC50) in [13] was over 1000 nM; in assay [14], over 1000 nM; in [15], 500 nM; in [16] it was over 1000 nM; in assay [17] it was 40 nM; in assay [18], over 1000 nM. Further, the EC50 in assay [19] was 20 nM; in assay [20], over 1000 nM; in [21], over 1000 nM; in [22], over 1000 nM.
With `Cc1nc(Nc2ncc(C(=O)Nc3c(C)cccc3Cl)s2)cc(N2CCN(CCOCCNC(=O)CCc3ccc4n3[B-](F)(F)[N+]3=C(c5ccc[nH]5)C=CC3=C4)CC2)n1` [Energy Transfer Probe 6, 2-((6-(4-(2-(2-aminoethoxy)ethyl)piperazin-1-yl)-2-methylpyrimidin-4-yl)amino)-N-(2-chloro-6-methylphenyl)thiazole-5-carboxamide-NanoBRET 590], the 50% effective concentration (EC50) is 400 nM in assay [23]; 100 nM in assay [24]; 700 nM in assay [25]; 200 nM in assay [26]; over 1000 nM in assay [27]; 30 nM in assay [28]. Also, the half-maximal effective concentration (EC50) turned out to be 200 nM in assay [29]; 100 nM in [30]; 500 nM in [31]; 20 nM in assay [32]; 40 nM in [33].
